From ChEMBL document CHEMBL3621135 (ACS Med Chem Lett, 2015)
Calls of active or inactive are those of the source. The calls are words filed in the database; no cut-off is given here.

Columns and labels:
[1] = biological target: Tyrosine-protein kinase JAK2 (Homo sapiens, UniProt O60674); assay: Inhibition of JAK2 in human SET2 cells assessed as reduction in STAT5 phosphorylation incubated for 2 hrs by Western blot method; format: cell-based
Mus musculus = assay: Inhibition of JAK2 in mouse pharamcodynamic model assessed as reduction in STAT5 phosphorylation at 5 mg/kg, po measured after 8 hrs; format: functional
Phosphodiesterase 4 = Phosphodiesterase 4 (Homo sapiens, UniProt P27815+Q08499+Q07343+Q08493); assay: Inhibition of PDE4 (unknown origin); format: protein assay
[2] = AUC (0 to 72 hrs) in rat; format: ADME, organism-based; set-up: time < 72 hr; conditions: in vivo
[3] = AUC (0 to 24 hrs) in dog; format: ADME, organism-based, Canis lupus familiaris; set-up: time < 24 hr; conditions: in vivo
Rattus norvegicus [4] = assay: Reduction in reticulocytes in rat at 15 mg/kg/day for 2 weeks; format: functional, organism-based
Rattus norvegicus [5] = assay: Reduction in red blood cell mass in rat at 15 mg/kg/day for 2 weeks; format: functional, organism-based
[6] = Permeability of the compound in pH 7.4 solution by PAMPA method; format: physicochemical; conditions: read-out: permeability
Cytochrome P450 1A2 = biological target: T1, Cytochrome P450 1A2 (Homo sapiens, UniProt P05177); assay: Inhibition of CYP1A2 in human liver microsomes; format: ADME
T1 sequence (P05177 whole entry): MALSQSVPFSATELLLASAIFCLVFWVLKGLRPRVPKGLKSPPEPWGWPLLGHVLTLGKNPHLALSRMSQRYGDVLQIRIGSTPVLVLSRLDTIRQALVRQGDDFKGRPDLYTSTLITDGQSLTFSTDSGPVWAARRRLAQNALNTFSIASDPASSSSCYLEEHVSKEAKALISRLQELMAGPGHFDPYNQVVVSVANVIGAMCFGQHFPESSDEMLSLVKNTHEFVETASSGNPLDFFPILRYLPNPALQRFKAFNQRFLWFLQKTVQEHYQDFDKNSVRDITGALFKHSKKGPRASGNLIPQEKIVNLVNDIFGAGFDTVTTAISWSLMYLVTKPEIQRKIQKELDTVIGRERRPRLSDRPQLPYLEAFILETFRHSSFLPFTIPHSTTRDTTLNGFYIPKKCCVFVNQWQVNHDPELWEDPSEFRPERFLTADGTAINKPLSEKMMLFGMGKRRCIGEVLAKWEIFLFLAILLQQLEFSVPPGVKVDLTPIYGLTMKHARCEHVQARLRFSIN

[7] = Toxicity against human HepG2 cells; format: cell-based
[8] = Volume of distribution at steady state in mouse at 2 mg/kg, iv and 10 mg/kg, po; format: ADME, organism-based; conditions: in vivo, read-out: Vdss
[9] = Half life in mouse at 2 mg/kg, iv and 10 mg/kg, po; format: ADME, organism-based; conditions: in vivo
[10] = Clearance in rat at 1 mg/kg, iv and 1 mg/kg, po; format: ADME, organism-based; conditions: in vivo
[11] = Volume of distribution at steady state in rat at 1 mg/kg, iv and 1 mg/kg, po; format: ADME, organism-based; conditions: in vivo, read-out: Vdss
[12] = Half life in rat at 1 mg/kg, iv and 1 mg/kg, po; format: ADME, organism-based; conditions: in vivo
[13] = Oral bioavailability in rat at 1 mg/kg; format: ADME, organism-based; conditions: in vivo
[14] = Clearance in dog at 0.2 mg/kg, iv and 0.2 mg/kg, po; format: ADME, organism-based, Canis lupus familiaris; conditions: in vivo
[15] = Volume of distribution at steady state in dog at 0.2 mg/kg, iv and 0.2 mg/kg, po; format: ADME, organism-based, Canis lupus familiaris; conditions: in vivo, read-out: Vdss
[16] = Half life in dog at 0.2 mg/kg, iv and 0.2 mg/kg, po; format: ADME, organism-based, Canis lupus familiaris; conditions: in vivo
[17] = Clearance in cynomolgus monkey at 1 mg/kg, iv and 1 mg/kg, po; format: ADME, organism-based, Macaca fascicularis; conditions: in vivo
[18] = Volume of distribution at steady state in cynomolgus monkey at 1 mg/kg, iv and 1 mg/kg, po; format: ADME, organism-based, Macaca fascicularis; conditions: in vivo, read-out: Vdss
[19] = Half life in cynomolgus monkey at 1 mg/kg, iv and 1 mg/kg, po; format: ADME, organism-based, Macaca fascicularis; conditions: in vivo
[20] = biological target: T2, Tyrosine-protein kinase JAK1 (Homo sapiens, UniProt P23458); assay: Inhibition of recombinant JAK1 (unknown origin) using 5-FAM-KKKKEEIYFFFG-OH substrate and ATP incubated for 180 mins by […] method
T2 sequence (P23458 whole entry): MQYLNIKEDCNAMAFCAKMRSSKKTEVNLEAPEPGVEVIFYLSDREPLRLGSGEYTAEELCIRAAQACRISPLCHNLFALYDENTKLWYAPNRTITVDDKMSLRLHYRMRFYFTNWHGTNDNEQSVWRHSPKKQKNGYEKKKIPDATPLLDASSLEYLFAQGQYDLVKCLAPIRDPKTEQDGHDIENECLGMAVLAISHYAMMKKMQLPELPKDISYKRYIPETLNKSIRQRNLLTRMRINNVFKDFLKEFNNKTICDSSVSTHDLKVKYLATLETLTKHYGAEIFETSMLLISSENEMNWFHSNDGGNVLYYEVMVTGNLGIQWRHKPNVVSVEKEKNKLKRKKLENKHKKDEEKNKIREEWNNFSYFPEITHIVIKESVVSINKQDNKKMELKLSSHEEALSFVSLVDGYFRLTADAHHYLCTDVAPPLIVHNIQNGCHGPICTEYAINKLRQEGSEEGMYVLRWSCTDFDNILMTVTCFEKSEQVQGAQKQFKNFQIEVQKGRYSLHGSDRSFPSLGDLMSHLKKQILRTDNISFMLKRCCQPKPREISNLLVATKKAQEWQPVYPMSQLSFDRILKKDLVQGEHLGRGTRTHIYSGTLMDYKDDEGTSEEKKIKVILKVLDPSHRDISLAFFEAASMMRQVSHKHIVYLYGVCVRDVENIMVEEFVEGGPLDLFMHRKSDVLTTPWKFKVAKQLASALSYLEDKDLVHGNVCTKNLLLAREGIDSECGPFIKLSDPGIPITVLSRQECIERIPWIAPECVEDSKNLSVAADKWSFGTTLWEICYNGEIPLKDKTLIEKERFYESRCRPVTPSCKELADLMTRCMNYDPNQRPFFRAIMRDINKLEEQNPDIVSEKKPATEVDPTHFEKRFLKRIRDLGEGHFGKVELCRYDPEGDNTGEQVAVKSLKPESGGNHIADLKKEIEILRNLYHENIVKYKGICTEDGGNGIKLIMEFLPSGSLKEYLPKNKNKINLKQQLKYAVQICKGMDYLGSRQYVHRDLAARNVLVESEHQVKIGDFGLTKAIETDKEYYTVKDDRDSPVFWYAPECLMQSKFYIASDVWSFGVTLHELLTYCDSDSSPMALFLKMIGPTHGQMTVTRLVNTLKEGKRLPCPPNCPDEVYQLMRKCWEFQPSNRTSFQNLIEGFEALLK

[21] = biological target: T3, Tyrosine-protein kinase JAK3 (Homo sapiens, UniProt P52333); assay: Inhibition of recombinant JAK3 (unknown origin) using 5-FAM-KKKKEEIYFFFG-OH substrate and ATP incubated for 180 mins by […] method
T3 sequence (P52333 whole entry): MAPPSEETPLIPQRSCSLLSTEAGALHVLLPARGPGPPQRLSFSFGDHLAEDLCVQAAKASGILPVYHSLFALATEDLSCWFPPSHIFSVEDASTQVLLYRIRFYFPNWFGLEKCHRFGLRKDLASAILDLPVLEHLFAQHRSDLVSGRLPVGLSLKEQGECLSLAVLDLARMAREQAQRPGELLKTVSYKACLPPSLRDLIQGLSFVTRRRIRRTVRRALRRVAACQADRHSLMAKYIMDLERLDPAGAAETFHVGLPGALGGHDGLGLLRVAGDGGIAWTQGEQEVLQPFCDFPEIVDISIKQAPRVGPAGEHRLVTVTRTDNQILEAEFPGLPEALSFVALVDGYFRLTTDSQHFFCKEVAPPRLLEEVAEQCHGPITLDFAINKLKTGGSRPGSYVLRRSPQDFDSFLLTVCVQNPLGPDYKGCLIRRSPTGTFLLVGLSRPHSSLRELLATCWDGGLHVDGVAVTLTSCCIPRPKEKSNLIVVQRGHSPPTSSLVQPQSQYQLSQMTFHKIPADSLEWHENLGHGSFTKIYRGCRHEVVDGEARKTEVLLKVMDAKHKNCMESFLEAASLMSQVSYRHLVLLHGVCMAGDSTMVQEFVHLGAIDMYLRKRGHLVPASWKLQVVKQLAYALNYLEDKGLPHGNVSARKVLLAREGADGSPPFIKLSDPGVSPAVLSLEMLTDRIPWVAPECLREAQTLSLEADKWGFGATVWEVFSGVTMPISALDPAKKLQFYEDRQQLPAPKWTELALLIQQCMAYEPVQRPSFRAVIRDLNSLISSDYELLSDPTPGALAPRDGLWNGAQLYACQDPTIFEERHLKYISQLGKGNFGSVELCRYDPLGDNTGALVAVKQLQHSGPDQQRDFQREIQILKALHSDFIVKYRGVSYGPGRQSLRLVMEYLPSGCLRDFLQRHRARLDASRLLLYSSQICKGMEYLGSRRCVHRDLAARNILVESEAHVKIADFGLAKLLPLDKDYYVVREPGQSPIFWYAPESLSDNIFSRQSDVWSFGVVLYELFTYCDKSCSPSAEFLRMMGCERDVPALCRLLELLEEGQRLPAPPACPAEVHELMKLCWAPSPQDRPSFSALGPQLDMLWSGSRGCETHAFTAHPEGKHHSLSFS

[22] = biological target: T2, Tyrosine-protein kinase JAK1; assay: Binding affinity to JAK1 (unknown origin) assessed as dissociation constant
[23] = biological target: T3, Tyrosine-protein kinase JAK3; assay: Binding affinity to JAK3 (unknown origin) assessed as dissociation constant
BaF3 = assay: Antiproliferative activity against mouse BAF3 cells expressing JAK2 V617F mutant incubated for 72 hrs by [3H] thymidine incorporation assay; format: functional, cell-based

Tyrosine-protein kinase JAK2, sequence (O60674 whole entry): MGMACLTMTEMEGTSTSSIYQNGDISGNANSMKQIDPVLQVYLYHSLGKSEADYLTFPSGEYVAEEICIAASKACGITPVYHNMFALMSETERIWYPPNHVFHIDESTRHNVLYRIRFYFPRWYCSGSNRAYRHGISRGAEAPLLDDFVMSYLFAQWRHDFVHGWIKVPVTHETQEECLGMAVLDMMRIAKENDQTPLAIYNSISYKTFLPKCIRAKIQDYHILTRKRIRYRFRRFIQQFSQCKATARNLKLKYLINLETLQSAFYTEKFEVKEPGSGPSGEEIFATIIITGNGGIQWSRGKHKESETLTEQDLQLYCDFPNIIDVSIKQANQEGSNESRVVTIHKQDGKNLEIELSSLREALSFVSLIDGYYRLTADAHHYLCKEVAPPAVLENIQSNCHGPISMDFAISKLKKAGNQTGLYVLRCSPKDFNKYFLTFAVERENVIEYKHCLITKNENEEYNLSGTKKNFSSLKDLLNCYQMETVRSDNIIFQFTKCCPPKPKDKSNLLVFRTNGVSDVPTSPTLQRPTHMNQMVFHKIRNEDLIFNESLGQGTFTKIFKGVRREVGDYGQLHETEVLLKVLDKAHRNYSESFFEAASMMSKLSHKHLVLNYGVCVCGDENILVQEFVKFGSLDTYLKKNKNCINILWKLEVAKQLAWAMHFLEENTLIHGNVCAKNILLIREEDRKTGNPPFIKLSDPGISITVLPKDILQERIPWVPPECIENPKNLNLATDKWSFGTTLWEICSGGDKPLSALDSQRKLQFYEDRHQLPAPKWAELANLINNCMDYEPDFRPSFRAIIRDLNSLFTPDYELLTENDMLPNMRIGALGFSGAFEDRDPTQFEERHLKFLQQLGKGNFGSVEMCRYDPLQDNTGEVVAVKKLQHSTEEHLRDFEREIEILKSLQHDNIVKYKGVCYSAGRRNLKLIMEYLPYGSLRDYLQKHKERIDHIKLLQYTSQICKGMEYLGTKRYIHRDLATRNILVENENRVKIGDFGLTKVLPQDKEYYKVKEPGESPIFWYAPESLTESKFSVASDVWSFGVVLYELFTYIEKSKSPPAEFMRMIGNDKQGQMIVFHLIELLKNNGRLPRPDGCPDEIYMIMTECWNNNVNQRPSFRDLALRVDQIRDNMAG

CCn1c(C(=O)N(C2CC2)C2CC2)cc2c3c(ncn3C)c(Nc3cc(C)n(C)n3)nc21 [BMS-911543]
IC50 [1]: 80 nM | inhibition in vivo at 5 mg/kg (Mus musculus): 50% | IC50 (Phosphodiesterase 4): 5600 nM | AUC(0-t) at 72 h [2]: 11300 µM·h | AUC(0-t) at 24 h [3]: 610 µM·h | Activity (Rattus norvegicus [4]): Active | Activity (Rattus norvegicus [5]): Active | Papp [6]: 69.8 ×10⁻⁶ cm/s | IC50 (Cytochrome P450 1A2): 1000 nM | IC50 [7]: > 50000 nM | Vd [8]: 0.26 L/kg | half-life [9]: 5.1 h | clearance [10]: 0.7 mL/min/kg | Vd [11]: 0.3 L/kg | half-life [12]: 5 h | bioavailability [13]: 100% | clearance [14]: 6.5 mL/min/kg | Vd [15]: 1.6 L/kg | half-life [16]: 2.2 h | clearance [17]: 5.3 mL/min/kg | Vd [18]: 1.1 L/kg | half-life [19]: 2.4 h | IC50 [20]: 75 nM | IC50 [21]: 360 nM | Kd [22]: 110 nM | Kd [23]: 360 nM | IC50 (BaF3): 70 nM
